Test results: patent US4238496A, “4-Substituted thiazolyl-2-oxamic acids and salts and esters thereof” (Boehringer Ingelheim GmbH, priority 1978, dated 1980)
Structures can show the parent of a compound that is named as a salt. Where two headings read alike, the source gives them in different places.

Tested on: Passive Cutaneous Anaphylaxis
Test: Passive Cutaneous Anaphylaxis test (PCA) in rats
Assay type: in vivo
Conditions: Rattus norvegicus, read-out: ED50 (dose reducing the size of the blued area by 50%)
Procedure: The compounds of the present invention, that is, those embraced by formula I and their non-toxic, pharmacologically acceptable salts, have useful pharmacodynamic properties.
The anti-allergic properties were ascertained in rats by the Passive Cutaneous Anaphylaxis test (PCA) essentially as described by Goose and Blair (Immunology 16: 749-760,1969). Rat serum was diluted so that the skin reactions with diameters between 10 and 15 mm in unsensitized rats were produced. The PCA test was performed in duplicate by injecting 0.1 ml of this antiserum dilution on each side of the shaved back of rats. Rats so treated were injected intravenously (i.v.) twenty-four hours later with 5 mg ovalbumin in 0.5 ml of 2% Evans Blue and the test substance to be tested by the i.v. route. In the case of substances tested orally, the i.v. ovalbumin challenge was 0.015 mg in the 0.5 ml of 2% Evans Blue solution administered 20-30 minutes after the oral administration of the test substance. Thirty minutes after challenge the rats were killed by CO2 asphyxiation and the skin reflected the diameters, in millimeters, of the blued areas were measured and the mean diameter determined. The circular area was calculated and the mean area in square millimeters of the control group was considered as 100% and the results of the compound test groups were expressed as a percentage change from these control values. From dose response curves the dose reducing the size of the blued area by 50% (ED50) was estimated.

[1] = p.o., 0.015 mg ovalbumin i.v. challenge 20-30 minutes after oral administration
[2] = iv, test substance given i.v. with 5 mg ovalbumin in 0.5 ml of 2% Evans Blue

SMILES	ED50 [1]	ED50 [2]
CCOC(=O)C(=O)Nc1nc(-c2ccncc2)cs1 [Ethyl 4-[pyridyl-($')]-thiazolyl-2-oxamate]	1.2 mg/kg	–
O=C(O)C(=O)Nc1nc(-c2ccncc2)cs1 [4-[pyridyl-(4')]-thiazolyl-2-oxamic acid ethanolamine salt]	–	0.05 mg/kg
Cc1sc(NC(=O)C(=O)O)nc1-c1ccccc1 [4-phenyl-5-methyl-thiazolyl-2-oxamic acid]	2.04 mg/kg	0.19 mg/kg
COc1ccccc1-c1csc(NC(=O)C(=O)O)n1 [4-(2'-Methoxy-phenyl)-thiazolyl-2-oxamic acid]	–	1.08 mg/kg
CN(C)c1cccc(-c2csc(NC(=O)C(=O)O)n2)c1 [4-(3' -dimethylamino-phenyl)-thiazolyl-2-oxamic acid ethanolamine salt]	1.06 mg/kg	0.34 mg/kg
CN(C)c1ccc(-c2csc(NC(=O)C(=O)O)n2)cc1 [4-(4'-dimethylamino-phenyl)-thiazolyl-2-oxamic acid]	0.34 mg/kg	0.02 mg/kg
O=C(O)C(=O)Nc1nc(-c2ccc3c(c2)OCCO3)cs1 [4-(benzodioxanyl)-thiazolyl-2-oxamic acid ethanolamine salt]	0.7 mg/kg	0.02 mg/kg
COc1ccc(OC)c(-c2csc(NC(=O)C(=O)O)n2)c1 [4-(2',5'-dimethoxy-phenyl)-thiazolyl-2-oxamic acid ethanolamine salt]	–	0.4 mg/kg
COc1ccc(-c2csc(NC(=O)C(=O)O)n2)cc1OC [4-(3',4'-dimethoxy-phenyl)-thiazolyl-2-oxamic acid]	–	0.13 mg/kg
CCOC(=O)C(=O)Nc1nc(-c2ccc(O)c(C)c2)cs1 [Ethyl 4-(3'-methyl-4'-hydroxy-phenyl)-thiazolyl-2-oxamate]	2.1 mg/kg	–
COc1cccc(-c2csc(NC(=O)C(=O)O)n2)c1 [4-(3'-methoxy-phenyl)-thiazolyl-2-oxamic acid]	2 mg/kg	0.16 mg/kg
COC(=O)C(=O)Nc1nc(-c2ccc(OC)c(OC)c2)cs1 [Methyl 4-(3',4'-dimethoxy-phenyl)-thiazolyl-2-oxamate]	1.2 mg/kg	–
CCOC(=O)C(=O)Nc1nc(-c2ccc(OCC)cc2)cs1 [Ethyl 4-(4'-ethoxy-phenyl)-thiazolyl-2-oxamate]	2.07 mg/kg	–
O=C(O)C(=O)Nc1nc(-c2cccnc2)cs1 [4-[pyridyl-(3')]-thiazolyl-2-oxamic acid ethanolamine salt]	–	0.16 mg/kg
COc1ccc(-c2csc(NC(=O)C(=O)O)n2)c(OC)c1 [4-(2',4'4'-dimethoxy-phenyl)-thiazolyl-2-oxamic acid]	–	0.39 mg/kg
